The values that follow come from patent EP0032748B1, “Thiophene derivatives” (UBE INDUSTRIES, LTD., priority 1980, dated 1981).

Data set [1] relates to pear (variety: Niju-seiki). Particulars: concentration of spray liquid 500 ppm.
Data set [2] relates to pear alternaria leaf spot fungus (Alternaria kikuchiana). It counts as in vivo. The following applies: pear black spot; concentration of spray liquid 500 ppm; three days after the inoculation.
The test system of data set [3] is hariot (variety: Taisho Kintoki).
Data set [4] deals with Phytophthora infestans. It counts as in vivo.
The subject of data set [5] is rice seeds (variety: Asominori). Kind of data set: Test Example 10: degree of phytotoxicity on rice after seed treatment (injury rating). The following applies: concentration 1000 ppm.
Data set [6] relates to rice brown spot fungus. Briefly: Test Example 10: seed treatment against brown spot of rice (seed disinfection ratio). Particulars: concentration 1000 ppm, seed immersion, 25 days after the seeding.
Data set [7] deals with tomato (variety: Sekai-ichi).
Data set [8] deals with paddy rice (variety: Asahi).
The subject of data set [9] is haricot sclerotinia rot (Sclerotinia sclerotiorum). Briefly: Test Example 5: control effect on haricot sclerotinia rot (spray, detached leaflets). Particulars: Table 6, spray liquid 200 ppm, lesion diameter 3 days after inoculation.
Experimental: On the following day, the first trifoliate leaf was cut off and the each leaflet of trifoliate leaf were placed in a 15 cm petri dish kept under moist conditions by placing a wet filter paper thereon and were inoculated on the center portion of each leaflet with a fungus-containing agar segment obtained by perforating by means of a cork borer of 8 mm in diameter an edge of a colony of a haricot sclerotinia rot (Sclerotinia sclerotiorum) cultured previously at 20°C. for 2 days in PSA medium. Three days after inoculation, the lesion diameter formed was measured by means of slide calipers and the control value (%) was obtained according to the following equation.
Data set [10] concerns Gibberella fujikuroi. Briefly: Test Example 9: seed treatment against "Bakanae" disease of rice (seed disinfection ratio). The following applies: concentration 1000 ppm, seed immersion at 15°C. for 24 hours, 32 days after the seeding.
Data set [11] has as its system rice brown spot fungus (Cochliobolus miyabeanus). Briefly: Test Example 2: control effect on paddy rice brown spot (spray on potted seedlings). The following applies: Table 3, spray liquid 500 ppm, inoculation one day after spraying, lesions per leaf 5 days after inoculation.
The test system of data set [12] is rice seeds. Briefly: Test Example 9: degree of phytotoxicity on rice after seed treatment (injury rating). Particulars: concentration 1000 ppm.
For data set [13], the system named is cucumber downy mildew fungus (Pseudoperonospora cubensis). It counts as in vivo. The following applies: for Control value: Table 7, spray liquid 500 ppm, percent lesion area 5 days after inoculation.
Data set [14] has as its system cucumber (variety: Sagami Hanjiro).
In data set [15] the test system is Pellicularia sasakii. It counts as in vivo. Particulars: Table 4, spray liquid 500 ppm, paddy rice sheath blight.
Data set [16] deals with paddy rice. Particulars: Table 4, spray liquid 500 ppm.
The mark [17] stands for this setting: Table 6, spray liquid 200 ppm, haricot.
The mark [18] stands for this setting: Table 3, spray liquid 500 ppm, paddy rice.

Read-outs that look alike come from different tables or passages of the source.

Turning to `O=C1C2CC=CCC2C(=O)N1SC(Cl)(Cl)Cl` (stereo not shown) [Captan, reference compound], in data set [1], the Degree of phytotoxicity was 0. Also, the “Control value (%)” value in [2] came out at 90%.
On to `CCCOC(=O)c1sc(C(=O)OCCC)c(OC(C)=O)c1OC(C)=O` [Compound No. 3, 3,4-Diacetoxy-2,5-di-n-propoxycarbonylthiopene], for which the Degree of phytotoxicity in data set [3] (in vivo), in [5], in data set [7] (in vivo), in data set [8] (in vivo) and in [12] was 0 each time. Besides, the Control value in [4] (in vivo) was 93%; in [9], 100%; in data set [11] it was 100%. For the same compound, the “Seed disinfection ratio (%)” value in data set [6] and in [10] was 100% each time.
Consider `CCOC(=O)c1sc(C(=O)OCC)c(OC(=O)OC)c1OC(=O)OC` [Compound No. 22, 3,4-Dimethoxycarbonyloxy-2,5-dicarbethoxythiophene], for which the Degree of phytotoxicity is reported as 0 in data set [3] (setting [17]); 0 in data set [5]; 0 in data set [7] (Table 5, spray liquid 500 ppm, tomato); 0 in [8] (setting [18]); 0 in data set [14] (Table 7, spray liquid 500 ppm); 0 in data set [12]. The Control value in data set [4] (Table 5, spray liquid 500 ppm, tomato late blight, inoculation 3 days after spraying, observed 3 days after inoculation) was found to be 100%; in data set [13], 100%; in [9], 95%; in data set [11], 100%. The “Seed disinfection ratio (%)” value in [6] is 100%; in data set [10], 97%.
For the compound `CCOC(=O)c1sc(C(=O)OCC)c(OC(=O)NC)c1OC(=O)NC` [Compound No. 50, 3,4-Bis(N-methylcarbamoyloxy)-2,5-dicarbethoxy-thiophene], the Control value in data set [13] and in [11] was 100% throughout. The Degree of phytotoxicity stood at 0 in data set [5]; 0 in data set [8] (setting [18]); 0 in data set [14] (Table 7, spray liquid 500 ppm); 0 in [12]. For the same compound, the “Seed disinfection ratio (%)” value in data set [6] and in data set [10] was 100% each time.
Turning to `CCOCCOC(=O)c1sc(C(=O)OCCOCC)c(O)c1O` [Compound No. 159, 3,4-Dihydroxy-2,5-di-2'-ethoxyethoxycarbonyl-thiophene], the values for the Control value in data set [4] (in vivo) and in data set [11] were 99% and 96%, respectively. The Degree of phytotoxicity in data set [7] (in vivo) and in [8] (in vivo) was 0 throughout.
Consider `CCOCCOC(=O)c1sc(C(=O)OCCOCC)c(OC(=O)NC)c1OC(=O)NC` [Compound No. 161, 3,4-Di-methylcarbamoyloxy-2,5-di-2'-ethoxyethoxycarbonylthiophene], for which, in data set [8] (in vivo), the Degree of phytotoxicity stood at 0. The Control value in data set [11] was found to be 100%.
In turn, `COCCOC(=O)c1sc(C(=O)OCCOC)c(OC(=O)COC)c1OC(=O)COC` [Compound No. 170, 3,4-Di-methoxymethylcarbonyloxy-2,5-di-2'-methoxyethoxycarbonylthiophene] registered a Control value in [13] of 93%. The compound also came in with a Degree of phytotoxicity in data set [14] (Table 7, spray liquid 500 ppm) of 0.
The matching figures for `COC(=O)Oc1c(C(=O)OCc2ccccc2)sc(C(=O)OCc2ccccc2)c1OC(=O)OC` [Compound No. 179, 3,4-Di-methoxycarbonyloxy-2,5-dibenzyloxycarbonylthiophene]: 100% and 0.
For the compound `CCNC(=O)Oc1c(C#N)sc(C(=O)OC)c1OC(=O)NCC` [Compound No. 208, 3,4-Di(N-ethylcarbamoyloxy)-2-cyano-5-methoxycarbonylthiophene], the Degree of phytotoxicity in [1] is given as 0; in data set [5] it was 0; in data set [14] (Table 7, spray liquid 500 ppm) it was 0. Further, in [13], the Control value worked out at 100%. For the same compound, the “Seed disinfection ratio (%)” value in data set [6] amounted to 97%. Moreover, in data set [2], the “Control value (%)” value worked out at 78%.
`CCOC(=O)c1sc(C#N)c(O)c1O` [Compound No. 210, 3,4-Dihydroxy-2-cyano-5-carbethoxythiophene] gave a Degree of phytotoxicity in [1] of 0. Also, in data set [2], the “Control value (%)” value came out at 100%.
As for `CCOC(=O)c1sc(C#N)c(OC(C)=O)c1OC(C)=O` [Compound No. 212, 3,4-Di-acetoxy-2-cyano-5-carbethoxythiophene], the Degree of phytotoxicity in data set [1] is 0. Moreover, the “Control value (%)” value in data set [2] came to 100%.
As for `CCOC(=O)Oc1c(C#N)sc(C(=O)OCC)c1OC(=O)OCC` [Compound No. 216, 3,4-Di-(ethoxycarbonyloxy)-2-cyano-5-carbethoxythiophene], the Degree of phytotoxicity in data set [3] (setting [17]) and in data set [5] was 0 throughout. The “Seed disinfection ratio (%)” value in [6] amounted to 100%. Further, in data set [9], the Control value was determined as 75%.
For `CCOC(=O)c1sc(C(=O)OCC)c(OC(=O)c2cccs2)c1OC(=O)c1cccs1` [Compound No. 229, 3,4-Di-(2'-thenoyloxy)-2,5-dicarbethoxythiophene], the Control value in [13] was determined as 100%. In data set [14] (Table 7, spray liquid 500 ppm), this compound returned a Degree of phytotoxicity of 0.
The compound `COC(=O)c1sc(C(=O)c2ccccc2)c(O)c1O` [Compound No. 246, 3,4-Dihydroxy-2-carbomethoxy-5-benzoylthiophene] displayed a Degree of phytotoxicity in [3] (setting [17]) of 0. The Control value in [9] was found to be 100%.
Compound `CCOC(=O)c1sc(C(=O)c2ccccc2)c(O)c1O` [Compound No. 247, 3,4-Dihydroxy-2-carbethoxy-5-benzoylthiophene] displayed a Degree of phytotoxicity in data set [3] (setting [17]) of 0. In addition, the Control value in [9] stood at 100%.
The matching figures for `CCOC(=O)c1sc(C(=O)c2ccccc2)c(OC(C)=O)c1OC(C)=O` [Compound No. 249, 3,4-Diacetoxy-2-carbethoxy-5-benzoylthiophene]: 0 and 100%.
Consider `CCOC(=O)c1sc(C(=O)c2ccccc2)c(OC(=O)OC)c1OC(=O)OC` [Compound No. 252, 3,4-Di(methoxycarbonyloxy)-2-carbethoxy-5-benzoylthiophene], for which the Degree of phytotoxicity in [3] (setting [17]) stood at 0. The compound further displayed a Control value in [9] of 90%.
`CCOC(=O)c1sc(C(=O)c2ccc(C)cc2)c(OC(=O)N(C)C)c1OC(=O)N(C)C` [Compound No. 287, 3,4-Di(N,N-dimethylcarbamoyloxy)-2-carbethoxy-5-(p-methylbenzoyl)-thiophene] registered a Degree of phytotoxicity in data set [3] (setting [17]) of 0. The same compound showed a Control value in [9] of 90%.
`CCOCCC(=O)Oc1c(C(=O)OCC)sc(C(=O)OCC)c1OC(=O)CCOCC` [Compound No. 295, 3,4-Di(2'-ethoxyethylcarbonyloxy)-2,5-dicarbethoxy-thiophene] had a Control value in [15] of 94%. Besides, the Degree of phytotoxicity in [16] is on record as 0.
Take `CN(C)C(=S)SSC(=S)N(C)C` [TMTD, reference compound]: the Degree of phytotoxicity in data set [5] was determined as 0. In data set [6], the “Seed disinfection ratio (%)” value came out at 51%.
Turning to `N#Cc1c(Cl)c(Cl)c(Cl)c(C#N)c1Cl` [TPN, reference compound], in data set [13] (concentration of spray liquid 500 ppm, five days after the inoculation), the “Control value (%)” value was 100%. The Degree of phytotoxicity in [14] (concentration of spray liquid 500 ppm) worked out at 0.
Turning to `COC(=O)NC(=S)Nc1ccccc1NC(=S)NC(=O)OC` [Thiophanate-methyl, reference compound], the Control value in [9] was 70%.
Turning to `OCCN1CN(CCO)CN(CCO)C1` [Triazine, reference compound], the Degree of phytotoxicity in [8] (setting [18]) stood at 0. In [11], this compound gave a Control value of 90%.
Take `CNC(=O)Oc1c(C#N)sc(C(=O)OC)c1OC(=O)NC` [compound 207]: the Degree of phytotoxicity in data set [1] stood at 0; in data set [5], 0; in [14] (Table 7, spray liquid 500 ppm), 0. The Control value in data set [13] came to 100%. Further, in data set [6], the “Seed disinfection ratio (%)” value was 96%. Also, the “Control value (%)” value in [2] turned out to be 92%.
As for `CCOC(=O)c1sc(C#N)c(O)c1O` [compound 211], the Control value in data set [13] worked out at 100%. For the same compound, in data set [14] (Table 7, spray liquid 500 ppm), the Degree of phytotoxicity is on record as 0.
With `CCOC(=O)c1sc(C#N)c(OC(=O)NC)c1OC(=O)NC` [compound 213], the Degree of phytotoxicity in data set [1] turned out to be 0; in [5], 0; in data set [14] (Table 7, spray liquid 500 ppm), 0. Further, the Control value in data set [13] is 100%. In addition, in data set [6], the “Seed disinfection ratio (%)” value stood at 94%. Further, the “Control value (%)” value in data set [2] is recorded as 92%.
